# Results reported in ChEMBL document CHEMBL1155997, “Design and synthesis of novel substituted quinazoline derivatives as antileishmanial agents” (Bioorg Med Chem Lett, 2009).
# The source made the active and inactive calls. The rule behind the calls is not given here.
# What was measured:
# Leishmania donovani [1] = test: Antileishmanial activity against Leishmania donovani in luciferase-promastigote system at 10 ug/ml; type: functional
# Leishmania donovani [2] = test: Antileishmanial activity against Leishmania donovani in luciferase-amastigote system; type: functional, organism-based
Molecule,inhibition at 10 µg/mL (Leishmania donovani [1]),IC50 (Leishmania donovani [2]),inhibition (Leishmania donovani [1])
Fc1ccc(C2NC(N3CCCC3)=NC3=C2CCc2ccccc23)cc1 (configuration not stated),99.9%,4.07 µg/mL,–
"D-gluconic acid, 2,4:2',4'-O-[oxybis-oxidostibylidyne]bis-, trisodium salt, nonahydrate",–,–,inactive
Fc1ccc(C2NC(N3CCOCC3)=NC3=C2CCc2ccccc23)cc1 (configuration not stated),99.6%,–,–
Clc1ccc(C2NC(N3CCCC3)=NC3=C2CCc2ccccc23)c(Cl)c1 (configuration not stated),99.8%,–,–
Clc1ccc(-c2nc(N3CCCCC3)nc3c2CCc2ccccc2-3)cc1,53.5%,–,–
Clc1ccc(C2NC(N3CCCCC3)=NC3=C2CCc2ccccc23)cc1 (configuration not stated),99.6%,–,–
Clc1ccc(C2NC(N3CCOCC3)=NC3=C2CCc2ccccc23)cc1 (configuration not stated),98.7%,5.2 µg/mL,–
Fc1ccc(C2NC(N3CCN(c4ccccn4)CC3)=NC3=C2CCc2ccccc23)cc1 (configuration not stated),68.2%,3.58 µg/mL,–
Fc1ccc(C2NC(N3CCCCC3)=NC3=C2CCc2ccccc23)cc1 (configuration not stated),99.9%,3.22 µg/mL,–
Clc1ccc(-c2nc(N3CCOCC3)nc3c2CCc2ccccc2-3)cc1,74.8%,–,–
c1ccc(C2NC(N3CCCCC3)=NC3=C2CCc2ccccc23)cc1 (configuration not stated),99.8%,3.48 µg/mL,–
Clc1ccc(-c2nc(N3CCCC3)nc3c2CCc2ccccc2-3)cc1,58.3%,–,–
c1ccc(-c2nc(N3CCCC3)nc3c2CCc2ccccc2-3)cc1,74.7%,–,–
Clc1ccc(-c2nc(N3CCCC3)nc3c2CCc2ccccc2-3)c(Cl)c1,77.9%,–,–
Clc1ccc(C2NC(N3CCN(c4ccccn4)CC3)=NC3=C2CCc2ccccc23)c(Cl)c1 (configuration not stated),99.9%,6.33 µg/mL,–
Clc1ccc(C2NC(N3CCOCC3)=NC3=C2CCc2ccccc23)c(Cl)c1 (configuration not stated),99.7%,–,–
c1ccc(C2NC(N3CCCC3)=NC3=C2CCc2ccccc23)cc1 (configuration not stated),99.8%,–,–

Molecule,inhibition at 10 µg/mL (Leishmania donovani [1]),IC50 (Leishmania donovani [2]),inhibition (Leishmania donovani [1])
Clc1ccc(-c2nc(N3CCOCC3)nc3c2CCc2ccccc2-3)c(Cl)c1,93.1%,–,–
Fc1ccc(-c2nc(N3CCCC3)nc3c2CCc2ccccc2-3)cc1,61.8%,–,–
Fc1ccc(-c2nc(N3CCN(c4ccccn4)CC3)nc3c2CCc2ccccc2-3)cc1,44.9%,–,–
c1ccc(C2NC(N3CCOCC3)=NC3=C2CCc2ccccc23)cc1 (configuration not stated),99.9%,–,–
c1ccc(-c2nc(N3CCCCC3)nc3c2CCc2ccccc2-3)cc1,91.8%,–,–
Fc1ccc(-c2nc(N3CCCCC3)nc3c2CCc2ccccc2-3)cc1,47.8%,–,–
Clc1ccc(C2NC(N3CCCC3)=NC3=C2CCc2ccccc23)cc1 (configuration not stated),96.3%,8.95 µg/mL,–
N=C(N)c1ccc(OCCCCCOc2ccc(C(=N)N)cc2)cc1 [PENTAMIDINE],100%,–,–
c1ccc(-c2nc(N3CCN(c4ccccn4)CC3)nc3c2CCc2ccccc2-3)cc1,62.2%,–,–
c1ccc(C2NC(N3CCN(c4ccccn4)CC3)=NC3=C2CCc2ccccc23)cc1 (configuration not stated),99.4%,–,–
c1ccc(-c2nc(N3CCOCC3)nc3c2CCc2ccccc2-3)cc1,71.5%,–,–
Clc1ccc(-c2nc(N3CCCCC3)nc3c2CCc2ccccc2-3)c(Cl)c1,95.2%,–,–
Clc1ccc(C2NC(N3CCN(c4ccccn4)CC3)=NC3=C2CCc2ccccc23)cc1 (configuration not stated),99.9%,2.65 µg/mL,–
Clc1ccc(-c2nc(N3CCN(c4ccccn4)CC3)nc3c2CCc2ccccc2-3)cc1,51.4%,–,–
Clc1ccc(C2NC(N3CCCCC3)=NC3=C2CCc2ccccc23)c(Cl)c1 (configuration not stated),99.7%,–,–
Fc1ccc(-c2nc(N3CCOCC3)nc3c2CCc2ccccc2-3)cc1,64.8%,–,–
Clc1ccc(-c2nc(N3CCN(c4ccccn4)CC3)nc3c2CCc2ccccc2-3)c(Cl)c1,15.7%,–,–
